In PMC13385394, “Cryo-EM Structure of the TRPC1/5 Heteromer Enables Design of Antidepressant and Anxiolytic Drug with Reduced Side Effects” (Nature Communications, 2026):
Where “and” joins values, the source holds several entries; their conditions need not be identical. Identical values can stand only once. Entries after “also recorded” stand apart in the source; their conditions may differ. Like-named read-outs stand apart in the source and are kept apart here.

Legend:
TRPC1/5 = target: T1, TRPC1/5 (Homo sapiens, UniProt P48995+Q9UL62); assay: Calcium flux assay (Calcium 5 kit, EA 100 nM), hTRPC1 + hTRPC5 in HEK293T cells; type: cell-based; details: calcium flux screening, 10 μM
T1 construct: Full-length, non-tagged hTRPC1 and hTRPC5 constructs are used for calcium flux assays; expressed in transfected cells; host or cells: HEK293T
T1 sequence (P48995 whole entry): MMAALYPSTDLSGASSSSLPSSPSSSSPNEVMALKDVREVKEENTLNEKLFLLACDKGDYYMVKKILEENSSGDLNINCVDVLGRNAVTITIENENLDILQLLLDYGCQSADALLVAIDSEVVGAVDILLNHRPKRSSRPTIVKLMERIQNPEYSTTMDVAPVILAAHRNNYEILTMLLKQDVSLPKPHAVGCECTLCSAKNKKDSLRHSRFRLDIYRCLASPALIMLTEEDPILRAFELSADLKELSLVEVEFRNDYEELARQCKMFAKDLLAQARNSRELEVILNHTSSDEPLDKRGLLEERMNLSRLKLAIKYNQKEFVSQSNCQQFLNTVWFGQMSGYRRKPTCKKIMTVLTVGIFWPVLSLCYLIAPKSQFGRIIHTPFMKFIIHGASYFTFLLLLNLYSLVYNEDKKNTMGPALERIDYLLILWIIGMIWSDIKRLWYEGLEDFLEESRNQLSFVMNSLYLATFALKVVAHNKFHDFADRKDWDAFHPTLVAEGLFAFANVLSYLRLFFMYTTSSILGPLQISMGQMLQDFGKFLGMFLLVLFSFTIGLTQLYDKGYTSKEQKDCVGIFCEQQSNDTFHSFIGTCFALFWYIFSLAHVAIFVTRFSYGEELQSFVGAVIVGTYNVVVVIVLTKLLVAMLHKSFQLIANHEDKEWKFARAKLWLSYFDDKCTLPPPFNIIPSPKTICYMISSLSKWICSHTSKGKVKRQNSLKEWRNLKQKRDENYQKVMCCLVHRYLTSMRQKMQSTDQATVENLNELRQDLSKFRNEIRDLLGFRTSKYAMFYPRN
T1 sequence (Q9UL62 whole entry): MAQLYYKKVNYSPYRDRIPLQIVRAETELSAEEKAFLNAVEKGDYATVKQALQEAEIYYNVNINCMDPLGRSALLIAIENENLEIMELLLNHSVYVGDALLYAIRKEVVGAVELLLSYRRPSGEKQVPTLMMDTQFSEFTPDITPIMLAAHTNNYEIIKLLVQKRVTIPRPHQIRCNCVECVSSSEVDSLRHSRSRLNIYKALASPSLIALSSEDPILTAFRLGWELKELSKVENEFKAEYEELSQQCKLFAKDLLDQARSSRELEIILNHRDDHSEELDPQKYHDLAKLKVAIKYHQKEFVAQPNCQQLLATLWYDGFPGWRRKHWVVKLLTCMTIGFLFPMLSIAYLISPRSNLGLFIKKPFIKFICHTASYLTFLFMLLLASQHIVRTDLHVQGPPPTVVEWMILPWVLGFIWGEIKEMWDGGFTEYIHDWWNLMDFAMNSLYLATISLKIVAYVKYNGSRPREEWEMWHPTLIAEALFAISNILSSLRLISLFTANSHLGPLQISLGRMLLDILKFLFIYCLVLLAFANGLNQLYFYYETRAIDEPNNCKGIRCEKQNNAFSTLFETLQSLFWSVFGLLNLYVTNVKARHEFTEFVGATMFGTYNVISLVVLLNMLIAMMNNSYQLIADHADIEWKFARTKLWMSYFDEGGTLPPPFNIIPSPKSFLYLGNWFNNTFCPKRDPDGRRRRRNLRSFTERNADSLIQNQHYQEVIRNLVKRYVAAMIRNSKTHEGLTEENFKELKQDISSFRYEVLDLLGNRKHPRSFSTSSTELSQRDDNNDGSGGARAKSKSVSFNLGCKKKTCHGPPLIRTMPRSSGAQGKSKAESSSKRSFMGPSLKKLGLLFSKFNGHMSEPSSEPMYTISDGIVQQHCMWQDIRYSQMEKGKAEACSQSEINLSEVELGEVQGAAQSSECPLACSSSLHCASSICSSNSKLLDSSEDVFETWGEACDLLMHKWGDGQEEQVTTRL
Description: Full-length, non-tagged hTRPC1 and hTRPC5 constructs are used for calcium flux assays. hTRPC5 is transfected alone or co-transfected with hTRPC1 into HEK293T cells (70–80% confluency) using PEI as the transfection reagent.
The culture medium is removed, and 100 µL of loading buffer (Calcium 5 Assay Kit) is added to each well, followed by a 1-h incubation at 37 °C in 5% CO2. Five minutes before measurement, molecules are added to each well at a final concentration of 10 µM under light-sensitive conditions.

TRPC6 homomer = target: T2, TRPC6 homomer (Homo sapiens, UniProt Q9Y210); assay: Whole-cell patch-clamp, inhibition of TRPC6 homomer; type: cell-based
T2 construct: expressed in transfected cells
T2 sequence (Q9Y210 1-931): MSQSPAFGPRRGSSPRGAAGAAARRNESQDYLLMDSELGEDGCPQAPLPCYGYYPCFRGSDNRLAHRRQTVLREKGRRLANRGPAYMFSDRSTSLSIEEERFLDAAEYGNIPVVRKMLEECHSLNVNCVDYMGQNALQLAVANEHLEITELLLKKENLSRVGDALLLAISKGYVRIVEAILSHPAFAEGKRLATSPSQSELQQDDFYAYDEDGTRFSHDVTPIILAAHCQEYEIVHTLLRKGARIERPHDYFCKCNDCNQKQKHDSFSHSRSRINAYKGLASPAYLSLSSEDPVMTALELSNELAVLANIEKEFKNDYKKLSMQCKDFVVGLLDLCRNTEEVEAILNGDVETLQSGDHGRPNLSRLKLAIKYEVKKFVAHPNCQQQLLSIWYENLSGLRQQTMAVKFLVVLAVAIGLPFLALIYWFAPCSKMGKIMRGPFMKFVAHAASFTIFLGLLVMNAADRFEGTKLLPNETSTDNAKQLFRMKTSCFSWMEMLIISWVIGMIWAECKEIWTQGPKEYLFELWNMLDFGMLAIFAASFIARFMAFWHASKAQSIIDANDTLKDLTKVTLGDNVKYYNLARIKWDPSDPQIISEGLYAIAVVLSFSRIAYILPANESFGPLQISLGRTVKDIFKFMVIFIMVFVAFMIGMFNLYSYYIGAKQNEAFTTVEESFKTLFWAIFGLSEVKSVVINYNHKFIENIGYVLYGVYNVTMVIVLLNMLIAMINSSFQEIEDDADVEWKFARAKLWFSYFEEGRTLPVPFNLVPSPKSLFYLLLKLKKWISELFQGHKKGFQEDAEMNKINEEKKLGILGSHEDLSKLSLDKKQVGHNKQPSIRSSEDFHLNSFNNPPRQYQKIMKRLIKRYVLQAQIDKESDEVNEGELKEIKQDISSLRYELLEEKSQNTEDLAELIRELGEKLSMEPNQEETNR
Source text: Error bars represent the standard error of the mean (SEM, n = 6 independent
Error bars represent the standard error of the
110 mean (SEM, n = 5 independent cells).

[1] = system: diet-induced obesity (DIO) mice; assay: Diet-induced obesity (DIO) model, body weight and food intake; type: in vivo, mouse; details: 11 days once daily, HC-070 and JD03-02 10 mg/kg i.g., Semaglutide 0.123 mg/kg s.c.
Description: A maximum of five mice were housed per cage during the acclimatization period, and three mice per cage during the experimental period. […] The day of administration was defined as day 1 (D1) of the experiment, with a single dose/day administered for 11 consecutive days. Daily observations were made on the animals’ general condition. Body weight was measured on days 1, 3, 5, 7, 9, and 11 post-administrations. Food intake was measured on days 1, 3, 5, 7, and 9 post-administrations by calculating the difference between the amount of food provided and the amount remaining in the cage, divided by the number of animals in the cage to determine the average food intake per mouse. The cumulative food intake during the experiment was calculated by summing the food intake measurements taken on different days.

[2] = Pharmacokinetics in mouse after p.o. and i.v. administration; type: in vivo; details: for AUC(0-inf): read-out: AUCINF_obs; for clearance: read-out: CL_obs; for MRT inf: read-out: MRTINF_obs
mCPP-induced anxiety [3] = assay: Open-field test (OFT), mCPP-induced anxiety model; details: single dose
mCPP-induced anxiety [4] = assay: Marble-burying test (MBT), mCPP-induced anxiety model; details: mCPP mice; single dose
Description: Seventy male 7–8-week-old C57BL/6 J mice from Jinan Pengyue Laboratory Animal Breeding Co., Ltd. (Jinan, China) were randomly and equally divided into seven groups for the experiment. After a 7-day acclimatization period, interventions were carried out for the indicated days. The Elevated Plus Maze (EPM) test was conducted on day 8, the Marble-Burying (MB) test on day 11, and the Open Field (OF) test on day 14. Mice were brought to the experimental site 2 h before the start of the experiment for acclimatization. […] Anxiety models were induced 30 min before the experiment using the following protocols: control group (NS, 10 mL/kg, i.p.), other groups (mCPP, 2 mg/kg, i.p.)[56].
Prior to the test, the animals were acclimated to the testing environment for 60 min. The test lasted for 30 min, and after each round, the bedding was replaced and the cage was disinfected. The number of marbles buried was recorded, with burying more than 50% of the marbles considered as the criteria for burying.

[5] = C57BL/6J, mouse, in vivo, iv, 2 mg/kg, mouse 2mg/kg i.v., Mean
[6] = C57BL/6J, mouse, in vivo, iv, 2 mg/kg, mouse 2mg/kg i.v., individual animals 4-6
[7] = C57BL/6J, mouse, in vivo, po, 10 mg/kg, mouse 10mg/kg p.o., Mean
[8] = C57BL/6J, mouse, in vivo, po, 10 mg/kg, mouse 10mg/kg p.o., individual animals 1-3
[9] = mouse 2mg/kg i.v., individual animals 4-6, listed as JD03-02, 2 mg/kg
[10] = mouse 10mg/kg p.o., individual animals 1-3, listed as JD03-02, 10 mg/kg

Structure (SMILES): CN(C)CCCCn1c(=O)c2c(nc(Oc3cccc(Cl)c3)n2Cc2ccc(Cl)cc2)n(C)c1=O [H08]
- inhibition of TRPC1/5 heteromers (in words) (TRPC1/5): strong inhibition
- IC50 (TRPC6 homomer): > 10 µM
- inhibition at 10 µM (TRPC6 homomer; 10 μM): 30 to 40%
- inhibition of TRPC6 (TRPC6 homomer; 10 μM): no more than 40%
- body weight [1]: no significant effect; also recorded: did not affect body weight or food intake
- food intake [1]: no significant effect; also recorded: did not affect body weight or food intake
- Tmax ([2]; C57BL/6J, in vivo, po, mouse 10mg/kg p.o., Mean): 1 h
- AUC(0-t) [2, 5]: 478 ng·h/mL
- half-life [2, 5]: 3.09 h
- AUC(0-inf) [2, 5]: 519 ng·h/mL
- clearance [2, 5]: 65.9 mL/min/kg
- MRT inf [2, 5]: 3.94 h
- AUC(0-t) [2, 6]: 385 ng·h/mL
- half-life [2, 6]: 3.52 h
- AUC(0-inf) [2, 6]: 469 ng·h/mL
- clearance [2, 6]: 71 mL/min/kg
- MRT inf [2, 6]: 4.46 h
- AUC(0-t) [2, 7]: 1190 ng·h/mL
- half-life [2, 7]: 2.9 h
- AUC(0-inf) [2, 7]: 1220 ng·h/mL
- Cmax ([2]; C57BL/6J, mouse, in vivo, po, 10 mg/kg, mouse 10mg/kg p.o., Mean, read-out: Cmax): 201 ng/mL
- MRT inf [2, 7]: 5.27 h
- half-life [2, 8]: 2.86 h
- AUC(0-inf) [2, 8]: 1300 ng·h/mL
- Cmax ([2]; C57BL/6J, mouse, in vivo, po, 10 mg/kg, mouse 10mg/kg p.o., individual animals 1-3, read-out: Cmax): 256 ng/mL
- MRT inf [2, 8]: 4.73 h
- Kp ([2]; brain and heart plasma, po, 10 mg/kg, mouse p.o., read-out: AUClast brain/AUClast heart plasma (brain-to-plasma ratio, B/P)): 0.67
- Kp at 4 h ([2]; brain and heart plasma, po, 10 mg/kg, mouse p.o., read-out: Clast brain/Cmax heart plasma): 0.83
- bioavailability ([2]; in vivo, oral, mouse 10mg/kg p.o. vs 2mg/kg i.v., read-out: F (oral bioavailability)): 49.8%
- Vss_obs ([2]; mouse 2mg/kg i.v., Mean): 15.296 L/kg
- AUCINF_obs [2, 9]: 447 ng·h/mL and 640 ng·h/mL
- AUClast [2, 9]: 416 ng·h/mL and 634 ng·h/mL
- CL_obs [2, 9]: 74.6 mL/min/kg and 52.1 mL/min/kg
- MRTINF_obs [2, 9]: 2.895 h and 4.460 h
- T1/2 [2, 9]: 2.06 h and 3.69 h
- Vss_obs [2, 9]: 18.984 L/kg and 12.955 L/kg and 13.949 L/kg
- AUCINF_obs [2, 10]: 1549 ng·h/mL and 800 ng·h/mL
- AUClast [2, 10]: 1294 ng·h/mL and 1532 ng·h/mL and 746 ng·h/mL
- Cmax [2, 10]: 205 ng/mL and 143 ng/mL
- MRTINF_obs [2, 10]: 6.50 h and 4.58 h
- T1/2 [2, 10]: 3.35 h and 2.48 h
- AUClast ([2]; mouse p.o., brain): 524 ng·h/g
- Cmax ([2]; mouse, brain, po, 10 mg/kg, mouse p.o., brain, read-out: Cmax): 265 ng/g
- concentration at 4 h ([2]; mouse, brain, single 10 mg/kg oral dose, at 4 hours): ~513 nM
- AUC(0-t) ([2]; mouse, heart plasma, po, 10 mg/kg, mouse p.o.): 778 ng·h/mL
- Cmax ([2]; mouse, heart plasma, po, 10 mg/kg, mouse p.o., heart plasma, read-out: Cmax): 318 ng/mL
- AUC(0-t) ([2]; mouse, portal vein plasma, po, 10 mg/kg, mouse p.o.): 1330 ng·h/mL
- Cmax ([2]; mouse, portal vein plasma, po, 10 mg/kg, mouse p.o., portal vein plasma, read-out: Cmax): 493 ng/mL
- Tmax ([2]; po, 10 mg/kg, mouse p.o., brain): 4 h
- Tmax ([2]; po, 10 mg/kg, mouse p.o., heart plasma): 4 h
- Tmax ([2]; po, 10 mg/kg, mouse p.o., portal vein plasma): 0.25 h
- OFT central zone entries and time in central zone (mCPP-induced anxiety [3]; mCPP mice): enhancing numbers of central zone entries and time spent in the central zone
- OFT total distance traveled (mCPP-induced anxiety [3]; mCPP-induced anxiety-like mice): no significant effect
- MBT number of marbles buried (mCPP-induced anxiety [4]): reducing the number of marbles buried
